According to patent US12714715B2, “Agent for treating myopia, preventing myopia and/or suppressing myopia progression” (SANTEN PHARMACEUTICAL CO., LTD., priority 2020, dated 2026):

What was measured:
guinea pig myopia model = assay: Test on suppression of myopia progression (axial length elongation and refractive error) in guinea pig myopia model; format: in vivo, guinea pig (Slc:Hartley); conditions: for Difference of axial lengths / Difference of refraction: 10 μL topical to goggled right eye once daily 14 days, right eye − left eye, average n=6; for Difference of axial lengths / Difference of refraction / Suppression rate of axial length elongation / Suppression rate of refractive error: day 14; for Suppression rate of axial length elongation / Suppression rate of refractive error: vs vehicle control group
Procedure: According to the following procedures, the effect of AFDX0250 on the suppression of myopia progression (the axial length elongation and the refractive error) was evaluated.
AFDX0250 was dissolved in purified water with a buffering agent and a tonicity agent to prepare 0.5% AFDX0250 solution. 1 mol/L sodium hydroxide reagent solution or dilute hydrochloric acid was added to the solution to adjust the pH thereof to neutral. Also, a buffering agent and a tonicity agent were dissolved in purified water to prepare a neutral vehicle. 9.8 mL of the vehicle was mixed with 0.2 mL of 0.5% AFDX0250 solution and stirred to prepare 0.01% AFDX0250 solution. 3 mL, 4 mL and 4.5 mL of the vehicles were mixed with 2 mL, 1 mL and 0.5 mL of 0.01% AFDX0250 solutions, respectively, and stirred to prepare 0.004%, 0.002% and 0.001% AFDX0250 solutions.
A test tube with a diameter of 18 mm was cut off at the level of 10 mm from the bottom, and the cut-off bottom part was glued to one side of Velcro tape (about 20 mm square) with a hole of an appropriate diameter in the center with an adhesive agent to prepare a lens (goggle). 3-week-old guinea pigs (Slc:Hartley) (n=30) were obtained, and the prepared goggle was covered to the right eye of each guinea pig with an adhesive agent to induce myopia to the guinea pigs. The left eye thereof without goggle was used as control.
The […] group, 0.004% AFDX0250 solution administration group, […] group (control group) (n=6 per group). In the AFDX0250 solution administration groups, 10 μL of the AFDX0250 solution in each concentration was topically administered to the right eye of each guinea pig once daily for 14 days from the day when the right eye was covered with the goggle (day 0) to day 13. In the control group, 10 μL of the vehicle was topically administered to the right eye of each guinea pig once daily for 14 days from the day when the right eye was covered with the goggle (day 0) to day 13. In the all groups, 10 μL of the vehicle was topically administered to the left eye at the same frequency of administration as that of each group daily for 14 days from day 0 to day 13. The guinea pigs were reared under a normal rearing condition.
On day 14 from the myopia induction, the axial lengths of right and left eyeballs were measured with an ultrasound axial length measurement device ECHOSCAN US-500 (A-scan) (NIDEK CO., LTD.), and the refractions were measured with the auto refractometer AR-1a (NIDEK CO., LTD.). The difference of axial lengths and the suppression rate of the axial length elongation as well as the difference of refraction and the suppression rate of the refractive error were calculated according to the following formulae. The calculation was performed in Microsoft Excel. Difference of axial lengths (mm)=Axial length of right eye (mm)−Axial length of left eye (mm) Suppression rate of axial length elongation (%)=(1−Difference of axial lengths in AFDX0250 solution administration group/Difference of axial lengths in control group)×100 (Formula) Difference of refraction (D)=Refraction of right eye (D)−Refraction of left eye (D) Suppression rate of refractive error (%)=(1−Difference of refraction in AFDX0250 solution administration group/Difference of refraction in control group)×100 (Formula) (Test Result)
AFDX0250 was dissolved in purified water with a buffering agent and a tonicity agent to prepare 0.5% AFDX0250 solution. 1 mol/L sodium hydroxide reagent solution or dilute hydrochloric acid was added to the solution to adjust the pH thereof to neutral. Also, a buffering agent and a tonicity agent were dissolved in purified water to prepare a neutral vehicle. 4 mL and 4.8 mL of vehicles were mixed with 1 mL and 0.2 mL of 0.5% AFDX0250 solutions, respectively, and stirred to prepare 0.1% and 0.02% of AFDX0250 solutions. Also, 4 mL of the vehicle was mixed with 1 mL of 0.02% AFDX0250 solution and stirred to prepare 0.004% AFDX0250 solution. […]

guinea pigs = assay: Evaluation of mydriatic action (pupil diameter, pupillary light reflex) after repeated topical administration to one eye; format: in vivo, guinea pig; conditions: guinea pig, in vivo
Procedure: An atropine solution was repeatedly topically administered to one eye of a guinea pig to evaluate the effect of the solution on mydriasis.
Atropine sulfate hydrate and glycerin were dissolved in water for injection to prepare 0.001%, 0.0003% and 0.0001% atropine solutions without adjusting the pH.
Each of the prepared solutions was topically administered to the left eye of guinea pigs (the left eyes of 3 guinea pigs for each solution) in a volume of 10 μL once daily for 5 days. The pupil diameter of each guinea pig was measured before the administration on day 5 as well as 1, 2 and 4 hours after the administration to observe the pupillary light reflex. The measured pupil diameters of each guinea pig at each measurement time were averaged to obtain the average value. The obtained average value was defined as the average pupil diameter. Among each average pupil diameter at each measurement time, the longest diameter was defined as the maximum pupil diameter.

[1] = Comparative Example 1, 0.004% solution
[2] = Comparative Example 1, 0.004% solution, topical once daily 14 days
[3] = Comparative Example 1, 0.02% solution
[4] = Comparative Example 1, 0.02% solution, topical once daily 14 days
[5] = Comparative Example 1, 0.1% solution
[6] = Comparative Example 1, 0.1% solution, topical once daily 14 days
[7] = Comparative Example 1, 0.5% solution
[8] = Comparative Example 1, 0.5% solution, topical once daily 14 days
[9] = Comparative Example 2, 0.004% solution
[10] = Comparative Example 2, 0.004% solution, topical once daily 14 days
[11] = Comparative Example 2, 0.01% solution
[12] = Comparative Example 2, 0.01% solution, topical once daily 14 days
[13] = Comparative Example 2, 0.02% solution
[14] = Comparative Example 2, 0.02% solution, topical once daily 14 days
[15] = Comparative Example 2, 0.1% solution
[16] = Comparative Example 2, 0.1% solution, topical once daily 14 days

CCN(CC)CC1CCCCN1CC(=O)N1c2ccccc2C(=O)Nc2cccnc21 (stereo not drawn) [AFDX0116, 11-[2-[2-[(diethylamino)methyl]-1-piperidinyl]acetyl]-5,11-dihydro-6H-pyrido[2,3-b][1,4]benzodiazepin-6-one]
Difference of axial lengths (guinea pig myopia model; [1]): 0.19 mm
Difference of refraction (guinea pig myopia model; [1]): −4.74 D
Suppression rate of axial length elongation (guinea pig myopia model; [2]): 21.14%
Suppression rate of refractive error (guinea pig myopia model; [2]): 45.54%
Difference of axial lengths (guinea pig myopia model; [3]): 0.09 mm
Difference of refraction (guinea pig myopia model; [3]): −2.17 D
Suppression rate of axial length elongation (guinea pig myopia model; [4]): 62.95%
Suppression rate of refractive error (guinea pig myopia model; [4]): 73.10%
Difference of axial lengths (guinea pig myopia model; [5]): 0.09 mm
Difference of refraction (guinea pig myopia model; [5]): −1.90 D
Suppression rate of axial length elongation (guinea pig myopia model; [6]): 63.86%
Suppression rate of refractive error (guinea pig myopia model; [6]): 73.17%
Difference of axial lengths (guinea pig myopia model; [7]): 0.03 mm
Difference of refraction (guinea pig myopia model; [7]): −2.10 D
Suppression rate of axial length elongation (guinea pig myopia model; [8]): 87.73%
Suppression rate of refractive error (guinea pig myopia model; [8]): 75.86%
Difference of axial lengths (guinea pig myopia model; [9]): 0.12 mm
Difference of refraction (guinea pig myopia model; [9]): −6.59 D
Suppression rate of axial length elongation (guinea pig myopia model; [10]): 22.52%
Suppression rate of refractive error (guinea pig myopia model; [10]): 9.96%
Difference of axial lengths (guinea pig myopia model; [11]): 0.12 mm
Difference of refraction (guinea pig myopia model; [11]): −3.61 D
Suppression rate of axial length elongation (guinea pig myopia model; [12]): 21.44%
Suppression rate of refractive error (guinea pig myopia model; [12]): 50.71%
Difference of axial lengths (guinea pig myopia model; [13]): 0.05 mm
Difference of refraction (guinea pig myopia model; [13]): −2.52 D
Suppression rate of axial length elongation (guinea pig myopia model; [14]): 69.73%
Suppression rate of refractive error (guinea pig myopia model; [14]): 65.61%
Difference of axial lengths (guinea pig myopia model; [15]): 0.05 mm
Difference of refraction (guinea pig myopia model; [15]): −2.42 D
Suppression rate of axial length elongation (guinea pig myopia model; [16]): 68.65%
Suppression rate of refractive error (guinea pig myopia model; [16]): 66.87%
Concentration showing the anti-myopic effect (comparison in words) (guinea pig myopia model; Comparative Examples 1 and 2 compared with Examples 1 and 2): higher than that of AFDX0250
Effect on the axial length elongation and the refractive error (summary in words) (guinea pig myopia model; summary of Examples 1 and 2 (AFDX0250) and Comparative Examples 1 and 2 (AFDX0116), topical once daily 14 days): suppressed the axial length elongation and the refractive error
Mydriatic action (pupil diameter and pupillary light reflex, in words) (guinea pigs): increased the pupil diameter and decreased the pupillary light reflex
Measurement time of maximum pupil diameter (guinea pigs; 5 days): 2 h
